Experimental data reported in PMC2866477, “Anticancer Effect and Structure-Activity Analysis of Marine Products Isolated from Metabolites of Mangrove Fungi in the South China Sea” (Marine Drugs, 2010).
Where two headings read alike, the source gives them in different places.

Tests used:
[1] = test system: KB cells; assay: MTT cytotoxicity assay, KB cells; type: cell-based; conditions: Homo sapiens, 72 h treatment, KB oral epidermoid carcinoma cells
Protocol: (§1) The cell lines were cultured in DMEM or RPMI 1640 containing 10% fetal bovine serum at 37 °C in the presence of 5% CO2. The cell lines were the oral epidermoid carcinoma cell lines KB and its vincristine-selected ABCB1-overexpressing KBv200 [10]; the breast carcinoma cell lines MCF-7 and its doxorubicin-selected ABCB1-overexpressing MCF-7/adr; the lung carcinoma cell line A549 and normal liver cell line LO2.
(§2) The MTT assay was used to evaluate the cytotoxicity of a number of compounds previously isolated from mangrove-derived fungi as described. Briefly, 3–4 × 10^3 cells were incubated in 96-well plates and allowed to attach overnight before compounds at full range concentrations were added. The concentrations were chosen so that the highest concentration killed most of the cells and the lowest killed none of the cells. After 72 h treatment, 0.5 mg/ml MTT was added to each well for an additional 4 h. Subsequently, the supernatant was removed, and the purple MTT-formazan crystals were dissolved by DMSO. Finally, absorbance was recorded at 540 nm with 655 nm as a reference filter using a Model 550 Microplate Reader (Bio-Rad, USA). Experiments were performed at least three times. The standard chemotherapeutic agent doxorubicin was used as a positive control in MTT assay and normal liver cell line LO2 was used to show whether cytotoxic activity was tumor-specific. The concentrations required to inhibit growth by 50% (IC50) were calculated from survival curves using the Bliss method.

[2] = test system: KBv200 cells; assay: MTT cytotoxicity assay, KBv200 cells; type: cell-based; conditions: Homo sapiens, 72 h treatment, vincristine-selected ABCB1-overexpressing KBv200 cells
Protocol: as §1, §2

[3] = test system: MCF-7 cells; assay: MTT cytotoxicity assay, MCF-7 cells; type: cell-based; conditions: Homo sapiens, MCF7, 72 h treatment, MCF-7 breast carcinoma cells
Protocol: as §1, §2

[4] = test system: MCF-7/adr cells; assay: MTT cytotoxicity assay, MCF-7/adr cells; type: cell-based; conditions: Homo sapiens, NCI/ADR-RES, 72 h treatment, doxorubicin-selected ABCB1-overexpressing MCF-7/adr cells
Protocol: as §1, §2

[5] = test system: A549 cells; assay: MTT cytotoxicity assay, A549 cells; type: cell-based; conditions: Homo sapiens, 72 h treatment, A549 lung carcinoma cells
Protocol: as §1, §2

[6] = test system: normal liver LO2 cells; assay: MTT cytotoxicity assay, normal liver LO2 cells; type: cell-based; conditions: for IC50: Homo sapiens, L02, 72 h treatment; for sensitivity of cancer cells compared with normal liver LO2 cells: cancer cells versus LO2 cells
Protocol: as §1, §2

[7] = test system: KB, KBv200, MCF-7, MCF-7/adr, and A549 cells; assay: MTT anticancer screen, cancer cell panel; type: cell-based, human; conditions: for IC50: Homo sapiens, MTT; for IC50 values in MDR cells compared with parental sensitive cells: KBv200, MCF-7/adr versus KB, MCF-7
Protocol: as §1, §2

[8] = test system: pcDNA3.1(+) DNA; assay: DNA binding assay (agarose gel electrophoresis); conditions: 10, 100 or 200 μmol/L with 1 μg pcDNA3.1(+), 37 °C, 3 h; 1% agarose gel
Protocol: 10, 100 or 200 μmol/L compounds were incubated with 1 μg pcDNA3.1(+) at 37 °C for 3 h. The mixtures were then subjected to electrophoresis on a 1% agarose gel, pre-stained with 0.5 μg/ml ethidium bromide, at 60 V for 40 min. Doxorubicin (DOX) was used as a positive control.

[9] = cancer cells, cell lines not given, read-out: IC50 (cytotoxic activity)
[10] = KB, KBv200, MCF-7, MCF-7/adr, and A549 cells, read-out: IC50 values (potent cytotoxic activity)

Structure (SMILES)	IC50 [1]	IC50 [2]	IC50 [3]	IC50 [4]	IC50 [5]	IC50 ([6]; normal liver LO2 cells)	IC50 [7, 9]	growth inhibitory activity in LO2 cells (in words) ([6]; normal liver LO2 cells)	DNA intercalation / binding to DNA [8]	IC50 [7, 10]	IC50 values in MDR cells compared with parental sensitive cells [7]	sensitivity of cancer cells compared with normal liver LO2 cells [6]	cytotoxic / anticancer activity (in words) ([7]; MTT assay in vitro)
CC1OC(O[C@H]2C(=O)c3c(O)cccc3OC2c2ccc(O)cc2)C(O)C(O)C1O (some centres unmarked) [Compound 80]	> 50 µM	> 50 µM	> 50 µM	> 50 µM	> 50 µM	> 50 µM	> 50 µM	–	–	–	–	–	–
CCOC(=O)COc1cc(C)cc2c1C(=O)c1c(O)cccc1C2=O [Compound 11]	5.89 ± 0.37 µM	18.9 ± 1.2 µM	13.2 ± 0.84 µM	35.3 ± 2.77 µM	21.3 ± 1.6 µM	28.9 ± 1.46 µM	–	exhibited growth inhibitory activity in LO2 cells	none of the compounds investigated here showed binding to DNA	< 50 µM	–	–	–
C#CCOc1cc(C)cc2c1C(=O)c1c(O)cccc1C2=O [Compound 14]	11.9 ± 0.69 µM	> 50 µM	35.2 ± 1.87 µM	> 50 µM	23.5 ± 1.32 µM	37.5 ± 1.64 µM	–	–	none of the compounds investigated here showed binding to DNA	< 50 µM	much higher IC50 values	–	–
O=c1c2c(O)ccc(O)c2oc2c3c(cc(O)c12)OC1OCCC31 (centres unmarked) [Compound 7]	0.03 ± 0.001 µM	9.08 ± 0.65 µM	0.17 ± 0.01 µM	31.6 ± 1.83 µM	16.5 ± 0.88 µM	47.4 ± 2.04 µM	–	–	–	< 50 µM	much higher IC50 values	–	–
CCCCC/C=C\CC(O)/C=C/C=C\C/C=C\CCCC(=O)OC (centres unmarked) [Compound 82]	> 50 µM	> 50 µM	> 50 µM	> 50 µM	> 50 µM	> 50 µM	–	–	–	–	–	–	–
Cc1ccc([N+](=O)[O-])cc1CO [Compound 2]	> 50 µM	> 50 µM	> 50 µM	> 50 µM	> 50 µM	> 50 µM	–	–	–	–	–	–	–
O=C1c2cc(O)cc(O)c2C(=O)c2c1cc1c(c2O)C2CCCC(O1)O2 (centres unmarked) [Compound 18]	28.2 ± 1.66 µM	44.6 ± 2.57 µM	17.2 ± 0.95 µM	25 ± 1.06 µM	33.9 ± 2.31 µM	> 50 µM	–	–	none of the compounds investigated here showed binding to DNA	< 50 µM	–	more sensitive	–
COc1cc(O)c2c(c1O)C(O)C1CC(C)(O)C(O)C(O)C1C2=O (centres unmarked) [Compound 20]	> 50 µM	> 50 µM	> 50 µM	> 50 µM	> 50 µM	> 50 µM	–	–	–	–	–	–	–
Cc1ccc2c(c1)C(=O)c1ccc(-c3ccc4c(c3)C(=O)c3cc(C)cc(O)c3C4=O)c(O)c1C2=O [Compound 19]	> 50 µM	> 50 µM	> 50 µM	> 50 µM	> 50 µM	> 50 µM	–	–	–	–	–	–	–
C=C/C=C/COc1c(-c2ccc3c(c2OC/C=C/C=C)C(=O)C2=C(O)CC(C)C(O)C2(C(=O)OC)O3)ccc2c1C(=O)C1=C(O)CC(C)C(O)C1(C(=O)OC)O2 (centres unmarked) [Compound 10]	> 50 µM	> 50 µM	> 50 µM	> 50 µM	> 50 µM	> 50 µM	–	–	–	–	–	–	–
O=C1c2ccc(O)cc2OCC1c1ccc(O)cc1 (centres unmarked) [Compound 78]	8.63 ± 0.57 µM	9.37 ± 0.61 µM	19.8 ± 0.89 µM	24.9 ± 1.15 µM	14.9 ± 0.64 µM	33.6 ± 2.06 µM	–	–	none of the compounds investigated here showed binding to DNA	< 50 µM	–	more sensitive	exhibited a cytotoxicity targeted to cancer cells
C=C/C=C/COc1cccc2c1C(=O)c1c(O)cccc1C2=O [Compound 13]	21 ± 1.35 µM	> 50 µM	16.3 ± 0.71 µM	> 50 µM	31.2 ± 2.02 µM	> 50 µM	–	–	none of the compounds investigated here showed binding to DNA	< 50 µM	much higher IC50 values	–	–
O=C1c2cccc(OCc3ccccc3)c2C(=O)c2c(OCc3ccccc3)cccc21 [Compound 16]	> 50 µM	> 50 µM	> 50 µM	> 50 µM	> 50 µM	> 50 µM	–	–	–	–	–	–	–
COc1cc(O)c2c(c1O)C(=O)C1CC(C)(O)C(O)C(O)C1C2O (centres unmarked) [Compound 24]	> 50 µM	> 50 µM	> 50 µM	> 50 µM	> 50 µM	> 50 µM	–	–	–	–	–	–	–
COc1cc(O)c2c(c1O)C(O)C1CC(C)(O)C(O)CC1C2=O (centres unmarked) [Compound 21]	> 50 µM	> 50 µM	> 50 µM	> 50 µM	> 50 µM	> 50 µM	–	–	–	–	–	–	–
C/C=C/C(=O)c1cc(O)c(O)cc1O [Compound 6]	> 50 µM	> 50 µM	> 50 µM	> 50 µM	> 50 µM	> 50 µM	–	–	–	–	–	–	–
CC(=O)/C=C/C=C/C=C/C(=O)CC(=O)O [Compound 84]	> 50 µM	> 50 µM	> 50 µM	> 50 µM	> 50 µM	> 50 µM	–	–	–	–	–	–	–
Cc1c(CCl)cc([N+](=O)[O-])cc1CCl [Compound 3]	> 50 µM	> 50 µM	> 50 µM	> 50 µM	> 50 µM	> 50 µM	–	–	–	–	–	–	–
COc1cc(O)c2c(c1O)C(=O)C1CC3(C)OC3CC1C2O (centres unmarked) [Compound 25]	> 50 µM	> 50 µM	> 50 µM	> 50 µM	> 50 µM	> 50 µM	–	–	–	–	–	–	–
COc1c2c(cc3oc4cccc(O)c4c(=O)c13)C1C=COC1O2 (centres unmarked) [Compound 9]	0.94 ± 0.01 µM	48 ± 3.41 µM	1.43 ± 0.09 µM	31.6 ± 1.36 µM	> 50 µM	> 50 µM	–	–	–	< 50 µM	much higher IC50 values	–	–
CCOC(=O)COc1cccc2c1C(=O)c1c(OCC(=O)OCC)cc(C)cc1C2=O [Compound 12]	> 50 µM	> 50 µM	> 50 µM	> 50 µM	> 50 µM	> 50 µM	–	–	–	–	–	–	–
CC1OC(O[C@@H]2C(=O)c3c(O)cccc3OC2c2ccc(O)cc2)C(O)C(O)C1O (some centres unmarked) [Compound 79]	> 50 µM	> 50 µM	> 50 µM	> 50 µM	> 50 µM	> 50 µM	> 50 µM	–	–	–	–	–	–
COc1cc(O)c2c(c1O)C(O)C1CC3(C)OC3CC1C2=O (centres unmarked) [Compound 22]	> 50 µM	> 50 µM	> 50 µM	> 50 µM	> 50 µM	> 50 µM	–	–	–	–	–	–	–
COc1cc(OC)c2c(c1)C(=O)c1cc3c(c(O)c1C2=O)C1CCOC1O3 (centres unmarked) [Compound 17]	> 50 µM	> 50 µM	> 50 µM	> 50 µM	> 50 µM	> 50 µM	–	–	–	–	–	–	–
Cc1cc(OCc2ccccc2)c2c(c1)C(=O)c1cccc(O)c1C2=O [Compound 15]	> 50 µM	> 50 µM	> 50 µM	> 50 µM	> 50 µM	> 50 µM	–	–	–	–	–	–	–
Cc1cccc(O)c1C(=O)O [Compound 5]	> 50 µM	> 50 µM	> 50 µM	> 50 µM	> 50 µM	> 50 µM	–	–	–	–	–	–	–
COc1cc(O)c2c(c1O)C(=O)C1CC(C)(O)C(O)CC1C2O (centres unmarked) [Compound 23]	> 50 µM	> 50 µM	> 50 µM	> 50 µM	> 50 µM	> 50 µM	–	–	–	–	–	–	–
COC(=O)/C=C/C=C/C=C/C=C(C)/C=C/C=C(\C)C(=O)O [Compound 85]	> 50 µM	> 50 µM	> 50 µM	> 50 µM	> 50 µM	> 50 µM	–	–	–	–	–	–	–
O=c1c2ccccc2oc2c3c(cc(O)c12)OC1OCCC31 (centres unmarked) [Compound 8]	0.71 ± 0.03 µM	17.2 ± 0.96 µM	2.53 ± 0.14 µM	9.37 ± 0.42 µM	> 50 µM	> 50 µM	–	–	–	< 50 µM	–	–	–
